Results reported in US4181797A, “1-N-(ω-amino-α-hydroxyalkanoyl) derivatives of 4'-deoxy-6'-N-methylkanamycin A” (Bristol-Myers Company, priority 1978, dated 1980).
Converted amounts (≈) assume the structure as drawn. Where two headings read alike, the source gives them in different places.

How the values were obtained:
[1] = test system: strains which phosphorylate the 3'-hydroxy group; settings: background statement; cited from earlier work
[2] = test system: resistant strains which contain 6'-N-acetylating enzymes; settings: background statement; cited from earlier work
E. cloacae A20364 = assay: MIC in Mueller-Hinton agar, APH(3')-I producer; type: cell-based; settings: Enterobacter cloacae
Method: (§1) The Minimum Inhibitory Concentrations (MIC's) of BB-K311, amikacin and kanamycin A were determined in Mueller-Hinton agar against a number of kanamycin-sensitive and kanamycin-resistant strains of organisms.

E. coli A20363 = assay: MIC in Mueller-Hinton agar, APH(3')-I producer; type: cell-based; settings: Escherichia coli
Method: as §1

[3] = test system: AAC(6')-producing and ANT(4')-producing strains; assay: Average activity relative to amikacin, Table 2 strains; type: cell-based; settings: AAC(6')-producing and ANT(4')-producing strains of Table 2
Method: as §1

[4] = test system: aminoglycoside-sensitive and aminoglycoside-resistant strains; assay: Antibacterial spectrum, Table 1 strains; type: cell-based; settings: strains of Table 1, compared with amikacin
Method: as §1

E. cloacae A21006 = assay: MIC in Mueller-Hinton agar, APH(3')-II producer; type: cell-based; settings: Enterobacter cloacae
Method: as §1

E. coli A20107 = assay: MIC in Mueller-Hinton agar, APH(3')-II producer; type: cell-based; settings: Escherichia coli
Method: as §1

E. coli A20732 = assay: MIC in Mueller-Hinton agar, ANT(2") producer; type: cell-based; settings: Escherichia coli
Method: as §1

S. aureus A22153 = assay: MIC in Mueller-Hinton agar, AAC(6')-producing strain; type: cell-based; settings: Staphylococcus aureus
Method: as §1

S. marcescens A22382 = assay: as above; type: cell-based; settings: Serratia marcescens
Method: as §1

S. epidermidis A22211 = assay: as above; type: cell-based; settings: Staphylococcus epidermidis
Method: as §1

P. rettgeri HM-56 = assay: as above; type: cell-based; settings: Providencia rettgeri, HM56
Method: as §1

P. aeruginosa GN4925 = assay: as above; type: cell-based; settings: Pseudomonas aeruginosa
Method: as §1

P. aeruginosa GN315 = assay: as above; type: cell-based; settings: Pseudomonas aeruginosa
Method: as §1

S. epidermidis A22152 = assay: as above; type: cell-based; settings: Staphylococcus epidermidis
Method: as §1

S. marcescens A21226 = assay: as above; type: cell-based; settings: Serratia marcescens
Method: as §1

E. coli A2128 = assay: as above; type: cell-based; settings: Escherichia coli
Method: as §1

S. marcescens A21235 = assay: as above; type: cell-based; settings: Serratia marcescens
Method: as §1

E. cloacae HM-43 = assay: as above; type: cell-based; settings: Enterobacter cloacae, HM43
Method: as §1

S. aureus A22421 = assay: as above; type: cell-based; settings: Staphylococcus aureus
Method: as §1

S. marcescens A22288 = assay: as above; type: cell-based; settings: Serratia marcescens
Method: as §1

P. vulgaris A9526 = assay: MIC in Mueller-Hinton agar, kanamycin-sensitive strain; type: cell-based; settings: Proteus vulgaris
Method: as §1

S. aureus Smith = assay: as above; type: cell-based; settings: Staphylococcus aureus
Method: as §1

E. cloacae A20464 = assay: as above; type: cell-based; settings: Enterobacter cloacae
Method: as §1

P. stuartii A20615 = assay: as above; type: cell-based; settings: Providencia stuartii
Method: as §1

K. pneumoniae A15130 = assay: as above; type: cell-based; settings: Klebsiella pneumoniae
Method: as §1

P. Morganii A20031 = assay: as above; type: cell-based; settings: Morganella morganii
Method: as §1

P. mirabilis A9900 = assay: as above; type: cell-based; settings: Proteus mirabilis
Method: as §1

B. brevis ATCC8185 = assay: as above; type: cell-based; settings: Brevibacillus brevis
Method: as §1

E. coli A9632 = assay: as above; type: cell-based; settings: Escherichia coli
Method: as §1

S. marcescens A20019 = assay: as above; type: cell-based; settings: Serratia marcescens
Method: as §1

S. epidermidis A22033 = assay: MIC in Mueller-Hinton agar, ANT(4')-producing strain; type: cell-based; settings: Staphylococcus epidermidis
Method: as §1

S. aureus A22054 = assay: as above; type: cell-based; settings: Staphylococcus aureus
Method: as §1

B. brevis IFO 12334 = assay: as above; type: cell-based; settings: Brevibacillus brevis, IFO12334
Method: as §1

E. coli A20895 = assay: MIC in Mueller-Hinton agar, AAC(3)-I producer; type: cell-based; settings: Escherichia coli
Method: as §1

SMILES: NCC1OC(OC2C(N)CC(N)C(OC3OC(CO)C(O)C(N)C3O)C2O)C(O)CC1O (stereo not drawn) [3'-deoxykanamycin]
- activity against 3'-hydroxy phosphorylating strains [1]: active against strains which phosphorylate the 3'-hydroxy group
- activity against strains with 6'-N-acetylating enzymes [2]: inactivated by other resistant strains

SMILES: CNC[C@@H]1C[C@H](O)[C@@H](O)[C@@H](O[C@H]2[C@H](O)[C@@H](O[C@H]3O[C@H](CO)[C@@H](O)[C@H](N)[C@H]3O)[C@H](NC(=O)[C@@H](O)CCN)C[C@@H]2N)O1 [BB-K311, 1-N-[L-(-)-γ-amino-α-hydroxybutyryl]-4'-deoxy-6'-N-methylkanamycin A]
- MIC (E. cloacae A20364; E. cloacae A20364, enzyme produced: APH(3')-I, Mueller-Hinton agar, read-out: MIC): 6.3 µg/mL (≈ 10.8 µM)
- MIC (E. coli A20363; E. coli A20363, enzyme produced: APH(3')-I, Mueller-Hinton agar, read-out: MIC): 3.1 µg/mL (≈ 5.31 µM)
- activity relative to amikacin, on the average [3]: twice as active as amikacin
- antibacterial spectrum [4]: antibacterial spectrum similar to amikacin
- MIC (E. cloacae A21006; E. cloacae A21006, enzyme produced: APH(3')-II, Mueller-Hinton agar, read-out: MIC): 3.1 µg/mL (≈ 5.31 µM)
- MIC (E. coli A20107; E. coli A20107, enzyme produced: APH(3')-II, Mueller-Hinton agar, read-out: MIC): 6.3 µg/mL (≈ 10.8 µM)
- MIC (E. coli A20732; E. coli A20732, enzyme produced: ANT(2"), Mueller-Hinton agar, read-out: MIC): 1.6 µg/mL (≈ 2.74 µM)
- MIC (S. aureus A22153; S. aureus A22153, AAC(6')-producing, Mueller-Hinton agar, read-out: MIC): 12.5 µg/mL (≈ 21.4 µM)
- MIC (S. marcescens A22382; S. marcescens A22382, AAC(6')-producing, Mueller-Hinton agar, read-out: MIC): 6.3 µg/mL (≈ 10.8 µM)
- MIC (S. epidermidis A22211; S. epidermidis A22211, AAC(6')-producing, Mueller-Hinton agar, read-out: MIC): 12.5 µg/mL (≈ 21.4 µM)
- MIC (P. rettgeri HM-56; P. rettgeri HM-56, AAC(6')-producing, Mueller-Hinton agar, read-out: MIC): 12.5 µg/mL (≈ 21.4 µM)
- MIC (P. aeruginosa GN4925; P. aeruginosa GN4925, AAC(6')-producing, Mueller-Hinton agar, read-out: MIC): 12.5 µg/mL (≈ 21.4 µM)
- MIC (P. aeruginosa GN315; P. aeruginosa GN315, AAC(6')-producing, Mueller-Hinton agar, read-out: MIC): 25 µg/mL (≈ 42.8 µM)
- MIC (S. epidermidis A22152; S. epidermidis A22152, AAC(6')-producing, Mueller-Hinton agar, read-out: MIC): 3.1 µg/mL (≈ 5.31 µM)
- MIC (S. marcescens A21226; S. marcescens A21226, AAC(6')-producing, Mueller-Hinton agar, read-out: MIC): 3.1 µg/mL (≈ 5.31 µM)
- MIC (E. coli A2128; E. coli A2128, AAC(6')-producing, Mueller-Hinton agar, read-out: MIC): 3.1 µg/mL (≈ 5.31 µM)
- MIC (S. marcescens A21235; S. marcescens A21235, AAC(6')-producing, Mueller-Hinton agar, read-out: MIC): 12.5 µg/mL (≈ 21.4 µM)
- MIC (E. cloacae HM-43; E. cloacae HM-43, AAC(6')-producing, Mueller-Hinton agar, read-out: MIC): 3.1 µg/mL (≈ 5.31 µM)
- MIC (S. aureus A22421; S. aureus A22421, AAC(6')-producing, Mueller-Hinton agar, read-out: MIC): 12.5 µg/mL (≈ 21.4 µM)
- MIC (S. marcescens A22288; S. marcescens A22288, AAC(6')-producing, Mueller-Hinton agar, read-out: MIC): 3.1 µg/mL (≈ 5.31 µM)
- MIC (P. vulgaris A9526; P. vulgaris A9526, enzyme produced: none, Mueller-Hinton agar, read-out: MIC): 0.8 µg/mL (≈ 1.37 µM)
- MIC (S. aureus Smith; S. aureus Smith, enzyme produced: none, Mueller-Hinton agar, read-out: MIC): 1.6 µg/mL (≈ 2.74 µM)
- MIC (E. cloacae A20464; E. cloacae A20464, enzyme produced: none, Mueller-Hinton agar, read-out: MIC): 3.1 µg/mL (≈ 5.31 µM)
- MIC (P. stuartii A20615; P. stuartii A20615, enzyme produced: none, Mueller-Hinton agar, read-out: MIC): 3.1 µg/mL (≈ 5.31 µM)
- MIC (K. pneumoniae A15130; K. pneumoniae A15130, enzyme produced: none, Mueller-Hinton agar, read-out: MIC): 1.6 µg/mL (≈ 2.74 µM)
- MIC (P. Morganii A20031; P. Morganii A20031, enzyme produced: none, Mueller-Hinton agar, read-out: MIC): 6.3 µg/mL (≈ 10.8 µM)
- MIC (P. mirabilis A9900; P. mirabilis A9900, enzyme produced: none, Mueller-Hinton agar, read-out: MIC): 6.3 µg/mL (≈ 10.8 µM)
- MIC (B. brevis ATCC8185; B. brevis ATCC8185, enzyme produced: none, Mueller-Hinton agar, read-out: MIC): 1.6 µg/mL (≈ 2.74 µM)
- MIC (E. coli A9632; E. coli A9632, enzyme produced: none, Mueller-Hinton agar, read-out: MIC): 1.6 µg/mL (≈ 2.74 µM)
- MIC (S. marcescens A20019; S. marcescens A20019, enzyme produced: none, Mueller-Hinton agar, read-out: MIC): 1.6 µg/mL (≈ 2.74 µM)
- MIC (S. epidermidis A22033; S. epidermidis A22033, ANT(4')-producing, Mueller-Hinton agar, read-out: MIC): 1.6 µg/mL (≈ 2.74 µM)
- MIC (S. aureus A22054; S. aureus A22054, ANT(4')-producing, Mueller-Hinton agar, read-out: MIC): 3.1 µg/mL (≈ 5.31 µM)
- MIC (B. brevis IFO 12334; B. brevis IFO 12334, ANT(4')-producing, Mueller-Hinton agar, read-out: MIC): 3.1 µg/mL (≈ 5.31 µM)
- MIC (E. coli A20895; E. coli A20895, enzyme produced: AAC(3)-I, Mueller-Hinton agar, read-out: MIC): 3.1 µg/mL (≈ 5.31 µM)

SMILES: NC[C@H]1O[C@H](O[C@H]2[C@H](O)[C@@H](O[C@H]3O[C@H](CO)[C@@H](O)[C@H](N)[C@H]3O)[C@H](N)C[C@@H]2N)[C@H](O)[C@@H](O)[C@@H]1O [Kanamycin A, kanamycin A]
- MIC (E. cloacae A20364; A20364): 100 µg/mL (≈ 206 µM)
- MIC (E. coli A20363; A20363): 100 µg/mL (≈ 206 µM)
- activity against 3'-hydroxy phosphorylating strains [1]: certain strains of Gram-negative bacteria are resistant to kanamycin A
- MIC (E. cloacae A21006; A21006): 100 µg/mL (≈ 206 µM)
- MIC (E. coli A20107; A20107): 100 µg/mL (≈ 206 µM)
- MIC (E. coli A20732; A20732): 25 µg/mL (≈ 51.6 µM)
- MIC (S. aureus A22153; A22153): > 100 µg/mL
- MIC (S. marcescens A22382; A22382): 25 µg/mL (≈ 51.6 µM)
- MIC (S. epidermidis A22211; A22211): > 100 µg/mL
- MIC (P. rettgeri HM-56): > 100 µg/mL
- MIC (P. aeruginosa GN4925; GN4925): 100 µg/mL (≈ 206 µM)
- MIC (P. aeruginosa GN315; GN315): > 100 µg/mL
- MIC (S. epidermidis A22152; A22152): > 100 µg/mL
- MIC (S. marcescens A21226; A21226): 12.5 µg/mL (≈ 25.8 µM)
- MIC (E. coli A2128; A2128): 100 µg/mL (≈ 206 µM)
- MIC (S. marcescens A21235; A21235): 50 µg/mL (≈ 103 µM)
- MIC (E. cloacae HM-43): > 100 µg/mL
- MIC (S. aureus A22421; A22421): > 100 µg/mL
- MIC (S. marcescens A22288; A22288): > 100 µg/mL
- MIC (P. vulgaris A9526; A9526): 0.8 µg/mL (≈ 1.65 µM)
- MIC (S. aureus Smith): 0.8 µg/mL (≈ 1.65 µM)
- MIC (E. cloacae A20464; A20464): 6.3 µg/mL (≈ 13 µM)
- MIC (P. stuartii A20615; A20615): 1.6 µg/mL (≈ 3.3 µM)
- MIC (K. pneumoniae A15130; A15130): 1.6 µg/mL (≈ 3.3 µM)
- MIC (P. Morganii A20031): 3.1 µg/mL (≈ 6.4 µM)
- MIC (P. mirabilis A9900; A9900): 1.6 µg/mL (≈ 3.3 µM)
- MIC (B. brevis ATCC8185; ATCC8185): 1.6 µg/mL (≈ 3.3 µM)
- MIC (E. coli A9632; A9632): 1.6 µg/mL (≈ 3.3 µM)
- MIC (S. marcescens A20019; A20019): 1.6 µg/mL (≈ 3.3 µM)
- MIC (S. epidermidis A22033; A22033): 50 µg/mL (≈ 103 µM)
- MIC (S. aureus A22054; A22054): > 100 µg/mL
- MIC (B. brevis IFO 12334): > 100 µg/mL
- MIC (E. coli A20895; A20895): 1.6 µg/mL (≈ 3.3 µM)
